This note sets out measurements from patent US8685916B2, “Opioid prodrugs with heterocyclic linkers” (Signature Therapeutics, Inc., priority 2011, dated 2014).

Data set [1] in a line: Oral administration of oxycodone prodrugs co-dosed with trypsin inhibitor Compound 109 to rats. It is filed as in vivo, rat.
Data set [2] in a line: Oral administration of hydrocodone prodrugs KC-40 or KC-50 co-dosed with Compound 109 to rats. The settings on record: for Cmax: HC Cmax ± sd.
A short description of data set [3]: Spacer leaving group cyclization release rate in pH 7.4 phosphate buffer.
Another data set has as its target T1, trypsin (Bos taurus, UniProt P00760).
T1 construct: purchased Sigma-Aldrich T8003; host or cells: bovine pancreas (tissue-derived preparation)
T1 sequence (P00760 24-246): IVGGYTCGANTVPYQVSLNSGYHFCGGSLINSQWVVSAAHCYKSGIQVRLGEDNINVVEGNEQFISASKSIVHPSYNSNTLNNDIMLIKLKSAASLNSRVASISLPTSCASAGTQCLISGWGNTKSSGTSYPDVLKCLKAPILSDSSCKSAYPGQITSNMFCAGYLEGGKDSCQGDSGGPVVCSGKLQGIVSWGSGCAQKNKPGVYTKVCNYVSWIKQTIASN
The experiment in a line: In vitro trypsin conversion of Compound TP-5 to tapentadol and inhibition by Compound 109. Format: biochemical, bovine. As to conditions: bovine, trypsin from bovine pancreas, read-out: Pro-drug trypsin half-life, Average ± sd (converted). The protocol:
(§1) Other reaction, incubation, sample treatment and analysis procedures were similar to those described in Example 39.

Data set [4] addresses T2, trypsin from bovine pancreas (Bos taurus, UniProt P00760).
T2 construct: purchased Sigma-Aldrich T8003; host or cells: bovine pancreas (tissue-derived preparation)
T2 sequence (P00760 24-246): T1 sequence (P00760 24-246)
The description is as above. Format: biochemical. The procedure: as §1

Data set [5] is described as follows: Pharmacokinetics following PO administration of increasing doses of Compound KC-31 to rats. As to conditions: male, Sprague Dawley, rat, plasma, 10 mg/kg.
The nature of data set [6]: Pharmacokinetics of hydrocodone prodrugs following PO administration to dogs, with or without Compound 109.
Data set [7] in a line: Oral administration of Compound KC-55 co-dosed with Compound 109 to rats. As to conditions: male, Sprague Dawley, rat, plasma, 36 umol/kg.
Data set [8] can be described thus: Pharmacokinetics following PO administration of Compound KC-55 to rats. As to conditions: oxycodone in rat plasma, oxycodone 10 mg/kg (28 μmol/kg).

As usually defined, the half-life is the time needed for the level to fall by half in the phase considered. A word on the Cmax: it is the maximum level reached in the sampled fluid or tissue. As usually defined, the Tmax is the time at which the peak concentration occurs.

Like-named read-outs stand apart in the source and are kept apart here.

Turning to `N=C(N)c1ccc2cc(OC(=O)c3ccc(N=C(N)N)cc3)ccc2c1` [Compound 109, 6-carbamimidoylnaphthalen-2-yl 4-(diaminomethyleneamino)benzoate], in data set [1], the “effect of co-dosed trypsin inhibitor on release of oxycodone by prodrugs KC-12 and KC-17” value is given as “ability to attenuate release of oxycodone”. Besides, the “effect of co-dosed trypsin inhibitor on release of hydrocodone by prodrugs KC-40 and KC-50” value in [2] (rats, PO) is reported as “ability to attenuate release of hydrocodone”.
Regarding `COc1ccc2c3c1O[C@H]1C(OC(=O)N4CCCC[C@@H]4CN)=CC[C@@]4(O)[C@@H](C2)N(C)CC[C@]314` [Compound KC-18, N-(oxycodone-6-enol-carbonyl)-R-(piperidine-2-methylamine)], the half-life at 2.18 mM in [3] was 0.875 ± 0.016 h.
Take `CC[C@@H](c1cccc(OC(=O)N2CCCCC2CNC(=O)[C@@H](CCCNC(=N)N)NC(=O)CC(=O)O)c1)[C@@H](C)CN(C)C` (stereo partly drawn) [Compound TP-5, N-(Tapentadol-carbonyl)piperidine-2-methylamine-L-arginine-malonate]: the half-life at trypsin (with Compound 109 (trypsin inhibitor), 8 µM) was 1.04 ± 0.00061 h; at trypsin, 0.0665 ± 4e-06 h. Besides, the “Rate of TP formation, Average ± sd” value is on record as 0.684 ± 0.036 μmol/h/BAEE U in data set [4] (Compound 109 0 μM) and 0.1043 ± 0.0049 μmol/h/BAEE U in data set [4] (Compound 109 8 μM).
In the case of `COc1ccc2c3c1O[C@H]1C(=O)CC[C@H]4[C@@H](C2)N(C)CC[C@]314` [Hydrocodone, hydrocodone], the peak concentration (Cmax) in data set [5] was 5.49 ± 1.7 ng/mL; in data set [2] (Sprague Dawley, rat, plasma, po, […], Table 11A: hydrocodone values in Table 10 adjusted to provide expected values at a […] (62 μmol/kg) dose, rat), 11.9 ng/mL; in data set [2] (Sprague Dawley, rat, plasma, po, […], Table 11B: hydrocodone values in Table 10 adjusted to provide expected values at a 62 μmol/kg ([…]) dose, rat), 12.4 ng/mL. The Tmax was found to be 1.06 ± 0.72 h in data set [5] and 1.06 h in data set [2] (Sprague Dawley, rat, plasma, po, […]). For the same compound, the “HC Cmax ± sd” value was 56.0 n/a^ ng/mL in data set [6] (Table 12: dog, […] values adjusted to expected value for a 2 μmol/kg dose (4 dose equivalents)); 140 n/a^ ng/mL in data set [6] (Table 12: dog, […] values adjusted to expected value for a 5 μmol/kg dose (10 dose equiv)); 14.0 ± 4.3^ ng/mL in [6] (Table 13: dog plasma, PO, hydrocodone […] (0.5 μmol/kg)); 140 n/a^ ng/mL in data set [6] (Table 13: dog, […] values adjusted to expected value for a 5 μmol/kg dose (10 dose equiv)). Besides, in [2] (Table 11B: hydrocodone values in Table 10 adjusted to provide expected values at a 62 μmol/kg ([…]) dose, rat), the “Tmax ± sd” value is listed as 1.06 h.
As for `COc1ccc2c3c1O[C@H]1C(=O)CC[C@@]4(O)[C@@H](C2)N(C)CC[C@]314` [Oxycodone, oxycodone], the peak concentration (Cmax) in data set [7] is 18.8 ng/mL. Moreover, the “OC Cmax ± sd” value in data set [8] is 14.7 ± 6.5^ ng/mL.
